From patent publication US11938189B2, “Compositions and methods for stabilizing protein-containing formulations” (Genentech, Inc., priority 2010, dated 2024)
Each block holds one compound with its values, some of them ahead of it.

Columns and labels:
[1] = system: anti-MUC16 monoclonal antibody; test: Shaking-induced aggregation (150 rpm), percent monomer by size-exclusion chromatography; format: physicochemical; settings: surfactant at one half of its CMC; shaking 150 rpm, 37° C., 64 hours; FIG. 1
Description: (§1) In this set of studies, a buffered solution (20 mM sodium phosphate buffer, pH 7.4) of monoclonal antibody was subjected to shaking on an orbital shaker at 150 rpm, at a controlled temperature of 37° C. These studies were carried out using a 3 ml solution fill of the antibody solution in a 6 cc glass vial. Samples were withdrawn at regular intervals and analyzed for percent monomer using size-exclusion chromatography. Various surfactants of the class of alkylglycosides were evaluated for their effectiveness to prevent protein aggregation during shaking. The surfactants were used at concentrations below their respective critical micelle concentration (CMC) or above their respective CMC.
The surfactants were employed at one half the concentration of their respective CMC values, i.e., 1.1 mM (0.035% w/v) n-decyl-β-D-glucopyranoside, 9 mM (0.24%) n-octyl-β-D-glucopyranoside and 0.04 mM (0.0035%) polysorbate 20.

[2] = system: anti-CD22 monoclonal antibody; test: Fenton reagent-induced oxidation of Met and Trp residues (phenyl RP-HPLC); format: physicochemical; settings: 3.6 mM (0.1% w/v); 0.1 ppm Fe3+ and 1 ppm hydrogen peroxide, 2 or 4 weeks at 40° C., pH 5.5; compared with 0.23 mM polysorbate 20 and no surfactant; FIG. 16
Description: In a third experiment, Fenton reagent-induced oxidation of Met and Trp amino acid residues (i.e., amino acids known to be susceptible to oxidation) in an anti-CD22 monoclonal antibody was analyzed. Specifically, buffered (20 mM histidine acetate, pH 5.5) solutions of anti-CD22 monoclonal antibody containing 0.1 ppm Fe^3+ and 1 ppm hydrogen peroxide were prepared and stored for either 2 or 4 weeks at 40° C., either in the absence of surfactant or in the presence of 0.23 mM (0.02% w/v) polysorbate 20 or 3.6 mM (0.1% w/v) n-octyl-β-D-glucopyranoside. samples were then withdrawn and percent oxidation of Met and Trp residues was determined from the percent early peaks of the antibody eluting through a phenyl RP-HPLC column.

[3] = system: anti-CD11a monoclonal antibody; test: Shaking at 300 rpm, turbidity of antibody formulation; format: physicochemical; settings: 0.23 mM (0.02% w/v) polysorbate 20 or 3.6 mM (0.1% w/v) n-octyl-β-D-glucopyranoside; shaking 300 rpm, 72 hours, 37° C.; FIG. 8
Description: as §1
(§2) In FIGS. 6-9, the effect of 0.23 mM (0.02% w/v) polysorbate 20 or 3.6 mM (0.1% w/v) n-octyl-β-D-glucopyranoside on the turbidity of aqueous formulations of an anti-MUC16 monoclonal antibody (FIG. 6), an anti-IgE monoclonal antibody (FIG. 7), an anti-CD11a monoclonal antibody (FIG. 8), and an anti-CD22 monoclonal antibody (FIG. 9), during shaking at 300 rpm for 72 hours at 37° C. was investigated.

[4] = system: anti-IgE monoclonal antibody; test: as above; format: physicochemical; settings: 0.23 mM (0.02% w/v) polysorbate 20 or 3.6 mM (0.1% w/v) n-octyl-β-D-glucopyranoside; shaking 300 rpm, 72 hours, 37° C.; FIG. 7
Description: as §1, §2

[5] = system: anti-CD22 monoclonal antibody; test: as above; format: physicochemical; settings: 0.23 mM (0.02% w/v) polysorbate 20 or 3.6 mM (0.1% w/v) n-octyl-β-D-glucopyranoside; shaking 300 rpm, 72 hours, 37° C.; FIG. 9
Description: as §1, §2

[6] = system: anti-CD11a monoclonal antibody; test: Shaking at 300 rpm, percent monomer of antibody; format: physicochemical; settings: 3.6 mM (0.1% w/v); shaking 300 rpm, 72 hours, 37° C.; FIG. 12
Description: as §1
as §2, with “10-13,” for “6-9,”, “percent monomer” for “turbidity”, “10),” for “6),”, “11),” for “7),”, “12),” for “8),”, “13),” for “9),”

[7] = system: anti-IgE monoclonal antibody; test: Shaking at 300 rpm, percent monomer of antibody; format: physicochemical; settings: 3.6 mM (0.1% w/v); shaking 300 rpm, 72 hours, 37° C.; FIG. 11
Description: as §1
as §2, with “10-13,” for “6-9,”, “percent monomer” for “turbidity”, “10),” for “6),”, “11),” for “7),”, “12),” for “8),”, “13),” for “9),”

[8] = system: anti-CD22 monoclonal antibody; test: Shaking at 300 rpm, percent monomer of antibody; format: physicochemical; settings: 3.6 mM (0.1% w/v); shaking 300 rpm, 72 hours, 37° C.; FIG. 13
Description: as §1
as §2, with “10-13,” for “6-9,”, “percent monomer” for “turbidity”, “10),” for “6),”, “11),” for “7),”, “12),” for “8),”, “13),” for “9),”

[9] = system: anti-CD11a monoclonal antibody; test: Oxidation of Met256 on storage in surfactant-containing antibody solution; format: physicochemical; settings: 0.1% w/v surfactant, FIG. 15
Description: In a second experiment, oxidation of the Met256 amino acid residue in an anti-CD11a monoclonal antibody in solutions containing either n-decyl-β-D-glucopyranoside, n-octyl-β-D-glucopyranoside, or polysorbate 20 was evaluated. For this purpose, 3 ml of the buffered antibody solution (pH 6.0) containing 0.1% w/v of the surfactant was stored in 6 cc vials at either 5° C. or 40° C. for a period of either 2 or 4 weeks.

[10] = system: anti-MUC16 monoclonal antibody; test: Shaking at 300 rpm, percent monomer of antibody; format: physicochemical; settings: shaking 300 rpm, 72 hours, 37° C.
Description: as §1
In FIG. 5, the effect of varying the concentration of n-octyl-β-D-glucopyranoside on the percent monomer of the anti-MUC16 monoclonal antibody in solution, following shaking at 300 rpm at 37° C. for 72 hours was investigated.
as §2, with “10-13,” for “6-9,”, “percent monomer” for “turbidity”, “10),” for “6),”, “11),” for “7),”, “12),” for “8),”, “13),” for “9),”

[11] = system: anti-MUC16 monoclonal antibody; test: Stirring-induced aggregation (500 rpm), turbidity; format: physicochemical; settings: surfactant at one-tenth of its CMC; stirring 500 rpm, ambient temperature, 90 minutes; FIG. 2
Description: In this set of studies, a Tefloncoated magnetic stir bar was used to induce agitation in a buffered solution (20 mM histidine-acetate, pH 5.5) of monoclonal antibody. 3 ml of the antibody solution was filled in a 6 cc glass vial and the solution was stirred at 500 rpm using a Teflon-coated stir bar. The solution was stirred for a period of 90 minutes and samples were withdrawn at regular intervals and analyzed for turbidity as an indication of formation of insoluble aggregates. Various surfactants of the class of alkylglycosides were evaluated for their effectiveness to prevent protein aggregation during shaking. The surfactants were used at concentrations below their respective critical micelle concentration (CMC) or above their respective CMC.
FIGS. 2 and 3 show the time-course of turbidity formation in a solution of the anti-MUC16 monoclonal antibody following stirring at 500 rpm using a Teflon-coated magnetic bar at ambient temperature for a period of 90 minutes. Turbidity was evaluated in solutions containing no surfactant as well as in solutions containing different alkylglycoside surfactants or polysorbate 20. […]

[12] = in water at 20-25° C.; cited from earlier work
[13] = system: anti-MUC16 monoclonal antibody; test: Shaking at 300 rpm, turbidity of antibody formulation; format: physicochemical; settings: shaking 300 rpm, 72 hours, 37° C.
Description: as §1
In FIG. 4, the effect of varying the concentration of n-octyl-β-D-glucopyranoside on the turbidity of anti-MUC16 monoclonal antibody formulations during shaking at 300 rpm for 72 hours at 37° C. was investigated.
as §2

[14] = system: Humanized anti-oxidized LDL monoclonal antibody; test: Light-induced oxidation of tryptophan residues (LC/MS/MS tryptic peptide map); format: physicochemical; settings: Light 24 hrs; 0.02% surfactant
Description: MAb samples and light treatment: Humanized anti-oxidized LDL monoclonal antibody, was produced at Genentech, Inc. from a CHO cell line. Three independent samples were prepared for photostability studies: 1) control sample, vial wrapped with aluminum foil; 2) test sample, vial light exposed (unwrapped); 3) test sample, vial light exposed (unwrapped) containing the specified non-ionic surfactant. Both control & light exposed samples were kept in a light box for 24 hrs. Light exposure following ICH guideline with following setting for a Atlas SUNTEST CPS+Light Box: Irradiance level=250 watts/square meter; Time set for 24 hours; Total UV dose=538 watt-hours/square meter; Total visible dose=1,320,000 lux-hours.
LC/MS/MS of tryptic MAb peptide map: Samples were digested with trypsin after reduction and alkylation. The resulting peptides were analyzed with a Thermo LTQ-Orbitrap mass spectrometer coupled with an Agilent 1200 capillary HPLC system. HPLC column: Jupiter 5 um C18 250×1.0 mm, flow rate: 70 uL/min, column oven temperature: 55° C. Solvent A: 0.1% TFA in water, B: 0.09% TFA in 90% ACN. Orbitrap setting: MS resolution 60000, MS/MS collected in data dependent mode, using LTQ.
The effect of light, and the protective effect of non-ionic surfactants, on the oxidation of tryptophan residues on an anti-oxidized LDL antibody was determined.

[15] = Hydrogen peroxide formation in stored surfactant solutions (Amplex Red Hydrogen Peroxide assay); format: physicochemical; settings: 0.1% w/v surfactant in water, stored at 40° C. for one month; FIG. 14
Description: In a first experiment, solutions of surfactants of the class of alkylglycosides, i.e., n-decyl-β-D-glucopyranoside, n-octyl-β-D-glucopyranoside, and n-decyl-β-D-maltopyranoside, as well as polysorbate 20 at a concentration of 0.1% w/v in water were stored at 40° C. for a period of one month. Samples were then withdrawn and analyzed for the presence of hydrogen peroxide using the Amplex Red Hydrogen Peroxide assay. the results of these analyses are shown in FIG. 14.

[16] = 0.23 mM (0.02% w/v) polysorbate 20 or 3.6 mM (0.1% w/v) n-octyl-β-D-glucopyranoside, FIG. 6

prevention of shaking-induced loss of percent monomer [1]: effective in preventing loss of monomer
Fenton reagent-induced oxidation of susceptible amino acids (Trp, Met) [2]: inhibited
increase in percent oxidized Met256 vs initial sample ([9]; pH 6.0, stored at 5° C. or 40° C. for 2 or 4 weeks): no significant increase
Compound: CCCCCCCCO[C@@H]1O[C@H](CO)[C@@H](O)[C@H](O)[C@H]1O [n-octyl-β-D-glucopyranoside]
inhibition of visible antibody aggregates measured by turbidity formation [3]: effectively inhibited the formation of visible antibody aggregates
inhibition of visible antibody aggregates measured by turbidity formation [4]: effectively inhibited the formation of visible antibody aggregates
inhibition of visible antibody aggregates measured by turbidity formation [5]: effectively inhibited the formation of visible antibody aggregates
maintenance of percent monomer upon shaking vs unshaken sample [6]: effectively maintained the percent monomer
maintenance of percent monomer upon shaking vs unshaken sample [7]: effectively maintained the percent monomer
maintenance of percent monomer upon shaking vs unshaken sample [8]: effectively maintained the percent monomer
maintenance of percent monomer upon shaking vs unshaken sample ([10]; 3.6 mM (0.1% w/v), FIG. 10): effectively maintained the percent monomer
maintenance of percent monomer upon shaking vs unshaken sample ([10]; all concentrations tested (0.72-18 mM), FIG. 5): effectively maintained the percent monomer
prevention of turbidity development on stirring [11]: effective in preventing turbidity development
CMC Value [12]: 18 mM
CMC Value (w/v) [12]: 0.53% w/v
inhibition of visible antibody aggregates measured by turbidity formation [13, 16]: effectively inhibited the formation of visible antibody aggregates
inhibition of visible antibody aggregates measured by turbidity formation ([13]; 0.72, 1.8, 3.6, 9 and 18 mM n-octyl-β-D-glucopyranoside, FIG. 4): effectively inhibited the formation of visible antibody aggregates

% Oxidized Trp33 [14]: 0.6%
% Oxidized Trp92 [14]: 8.9%
hydrogen peroxide formed in surfactant solution [15]: about 10 μM
percent of Met256 residues oxidized ([9]; pH 6.0, storage at 40° C. for 4 weeks): approximately 16%
percent of Met256 residues oxidized ([9]; pH 6.0, time zero): approximately 2%
Compound: polyoxyethylene sorbitan monolaurate [polysorbate 20, reference compound]
prevention of shaking-induced loss of percent monomer [1]: not effective in preventing shaking-induced loss of monomer
inhibition of visible antibody aggregates measured by turbidity formation [3]: effectively inhibited the formation of visible antibody aggregates
inhibition of visible antibody aggregates measured by turbidity formation [4]: effectively inhibited the formation of visible antibody aggregates
inhibition of visible antibody aggregates measured by turbidity formation [5]: effectively inhibited the formation of visible antibody aggregates
prevention of turbidity development on stirring [11]: effective in preventing turbidity development
inhibition of visible antibody aggregates measured by turbidity formation [13, 16]: effectively inhibited the formation of visible antibody aggregates
